Assay results reported in ChEMBL document CHEMBL5465560, “Selectivity Literature for EUbOPEN Chemogenomic Library” (2024).

Tests used:
[1] = target: Bromodomain-containing protein 9 (Homo sapiens) (UniProt Q9H8M2); test: Selectivity interaction (Human bromodomain panel (DSF assay)) EUB0000233b BRD9
[2] = target: T1, cGMP-dependent protein kinase 2 (Homo sapiens) (UniProt Q13237); test: Selectivity interaction (KinomeScan (DiscoverX)) EUB0000666a PRKG2; settings: at 10 µM
T1 sequence (whole entry): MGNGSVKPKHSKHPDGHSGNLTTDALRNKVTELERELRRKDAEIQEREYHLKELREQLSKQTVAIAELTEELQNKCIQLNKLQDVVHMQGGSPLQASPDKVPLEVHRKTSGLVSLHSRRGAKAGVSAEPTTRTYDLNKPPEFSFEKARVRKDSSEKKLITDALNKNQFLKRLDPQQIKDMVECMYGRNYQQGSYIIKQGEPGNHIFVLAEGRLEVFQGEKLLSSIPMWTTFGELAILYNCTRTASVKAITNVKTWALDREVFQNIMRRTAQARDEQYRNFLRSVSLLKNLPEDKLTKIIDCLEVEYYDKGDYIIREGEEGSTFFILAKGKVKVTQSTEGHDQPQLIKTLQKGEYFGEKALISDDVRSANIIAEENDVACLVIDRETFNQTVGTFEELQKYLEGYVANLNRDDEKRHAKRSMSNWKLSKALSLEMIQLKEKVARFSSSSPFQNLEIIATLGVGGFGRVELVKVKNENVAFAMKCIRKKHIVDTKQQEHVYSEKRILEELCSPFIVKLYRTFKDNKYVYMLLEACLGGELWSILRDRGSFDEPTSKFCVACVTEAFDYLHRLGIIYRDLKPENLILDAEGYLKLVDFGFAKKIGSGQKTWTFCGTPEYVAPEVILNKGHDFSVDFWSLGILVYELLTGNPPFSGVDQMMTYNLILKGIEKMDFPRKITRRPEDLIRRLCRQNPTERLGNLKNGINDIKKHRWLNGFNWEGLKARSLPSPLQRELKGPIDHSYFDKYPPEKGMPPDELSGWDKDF

[3] = tested on: Fibroblast growth factor receptor 3 (Homo sapiens), P22607 [K650E]; test: (§1) Selectivity interaction (Kinase panel (Z-LYTE Assay)) EUB0001632a FGFR3; settings: at 10 µM
[4] = target: Fibroblast growth factor receptor 3 (Homo sapiens, UniProt P22607); test: as §1; settings: at 10 µM
Sequence of Fibroblast growth factor receptor 3 (P22607 23-806 limits assumed): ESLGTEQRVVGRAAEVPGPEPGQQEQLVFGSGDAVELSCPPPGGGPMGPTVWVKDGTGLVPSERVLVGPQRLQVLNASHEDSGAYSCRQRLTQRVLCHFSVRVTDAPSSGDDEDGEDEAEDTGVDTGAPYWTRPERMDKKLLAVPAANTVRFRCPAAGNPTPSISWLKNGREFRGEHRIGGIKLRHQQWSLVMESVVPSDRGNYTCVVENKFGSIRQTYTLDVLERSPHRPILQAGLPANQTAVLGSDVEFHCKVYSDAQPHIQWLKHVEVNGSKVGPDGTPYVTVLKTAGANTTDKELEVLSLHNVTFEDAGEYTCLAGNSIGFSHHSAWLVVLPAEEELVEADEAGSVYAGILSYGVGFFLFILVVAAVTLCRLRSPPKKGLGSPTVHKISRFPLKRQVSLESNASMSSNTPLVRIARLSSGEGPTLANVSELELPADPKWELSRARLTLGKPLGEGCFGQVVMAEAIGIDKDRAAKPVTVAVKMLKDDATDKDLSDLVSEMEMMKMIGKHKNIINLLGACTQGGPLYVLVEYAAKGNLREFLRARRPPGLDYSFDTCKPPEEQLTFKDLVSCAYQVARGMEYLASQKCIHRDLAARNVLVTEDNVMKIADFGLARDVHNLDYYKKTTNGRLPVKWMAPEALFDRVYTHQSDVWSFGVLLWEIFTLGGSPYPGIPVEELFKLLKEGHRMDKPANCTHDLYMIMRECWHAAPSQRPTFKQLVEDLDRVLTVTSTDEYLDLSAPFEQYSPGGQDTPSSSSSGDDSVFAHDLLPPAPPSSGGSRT

[5] = target: Protein-tyrosine kinase 2-beta (Homo sapiens) (UniProt Q14289); test: Selectivity interaction (KinomeScan (DiscoverX)) EUB0000607a PTK2B; settings: at 10 µM
Sequence of Protein-tyrosine kinase 2-beta (Homo sapiens) (Q14289 whole entry, looked up): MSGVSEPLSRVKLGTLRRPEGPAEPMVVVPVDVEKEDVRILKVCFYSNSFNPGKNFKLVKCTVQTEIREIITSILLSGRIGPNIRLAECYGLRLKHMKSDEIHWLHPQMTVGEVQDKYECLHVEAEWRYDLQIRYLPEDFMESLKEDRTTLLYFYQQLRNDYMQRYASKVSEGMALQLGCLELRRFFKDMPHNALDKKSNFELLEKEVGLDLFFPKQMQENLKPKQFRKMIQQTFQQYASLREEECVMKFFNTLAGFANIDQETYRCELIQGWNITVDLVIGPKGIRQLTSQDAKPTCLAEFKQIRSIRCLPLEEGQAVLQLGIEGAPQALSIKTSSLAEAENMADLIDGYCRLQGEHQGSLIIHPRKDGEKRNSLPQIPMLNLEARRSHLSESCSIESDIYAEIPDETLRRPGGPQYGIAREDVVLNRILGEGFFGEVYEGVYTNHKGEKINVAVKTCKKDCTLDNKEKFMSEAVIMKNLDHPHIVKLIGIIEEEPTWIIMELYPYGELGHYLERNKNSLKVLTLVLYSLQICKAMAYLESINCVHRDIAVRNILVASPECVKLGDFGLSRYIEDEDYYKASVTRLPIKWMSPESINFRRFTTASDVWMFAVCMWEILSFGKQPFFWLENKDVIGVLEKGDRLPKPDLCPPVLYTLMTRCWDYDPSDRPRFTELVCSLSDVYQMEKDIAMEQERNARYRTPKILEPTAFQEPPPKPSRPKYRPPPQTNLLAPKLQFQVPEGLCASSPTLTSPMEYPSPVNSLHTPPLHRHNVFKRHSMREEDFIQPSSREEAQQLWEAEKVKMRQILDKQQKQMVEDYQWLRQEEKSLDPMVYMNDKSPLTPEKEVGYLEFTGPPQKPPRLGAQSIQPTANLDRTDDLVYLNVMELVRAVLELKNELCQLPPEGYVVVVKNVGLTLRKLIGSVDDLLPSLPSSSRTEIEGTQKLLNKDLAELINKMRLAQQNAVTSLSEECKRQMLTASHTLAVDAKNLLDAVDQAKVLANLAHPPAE

[6] = target: T2, Serine/threonine-protein kinase Nek5 (Homo sapiens) (UniProt Q6P3R8); test: Selectivity interaction (KinomeScan (DiscoverX)) EUB0000695a NEK5; settings: at 100 nM
T2 sequence (whole entry): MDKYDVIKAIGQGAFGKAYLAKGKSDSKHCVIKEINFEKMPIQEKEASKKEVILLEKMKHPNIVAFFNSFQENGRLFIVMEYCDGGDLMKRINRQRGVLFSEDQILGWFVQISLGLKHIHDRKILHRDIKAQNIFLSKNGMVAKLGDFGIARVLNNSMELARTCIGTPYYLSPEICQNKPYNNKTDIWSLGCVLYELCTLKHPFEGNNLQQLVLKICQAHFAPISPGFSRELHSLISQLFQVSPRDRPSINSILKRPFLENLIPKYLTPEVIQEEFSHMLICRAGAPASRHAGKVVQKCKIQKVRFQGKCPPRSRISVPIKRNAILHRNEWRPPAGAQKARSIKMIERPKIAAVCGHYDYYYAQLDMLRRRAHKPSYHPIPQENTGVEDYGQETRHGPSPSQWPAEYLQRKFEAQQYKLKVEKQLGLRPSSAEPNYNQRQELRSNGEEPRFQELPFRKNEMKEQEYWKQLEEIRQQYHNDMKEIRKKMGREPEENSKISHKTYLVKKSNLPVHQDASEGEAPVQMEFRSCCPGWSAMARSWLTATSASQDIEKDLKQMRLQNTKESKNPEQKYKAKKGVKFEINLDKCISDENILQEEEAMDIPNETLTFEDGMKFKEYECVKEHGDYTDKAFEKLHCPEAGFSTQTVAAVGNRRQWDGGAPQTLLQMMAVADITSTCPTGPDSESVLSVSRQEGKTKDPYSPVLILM

[7] = target: Tyrosine-protein kinase receptor Tie-1 (Homo sapiens) (UniProt P35590); test: Selectivity interaction (KinomeScan (DiscoverX)) EUB0000695a TIE1; settings: at 100 nM
Sequence of Tyrosine-protein kinase receptor Tie-1 (Homo sapiens) (P35590 whole entry): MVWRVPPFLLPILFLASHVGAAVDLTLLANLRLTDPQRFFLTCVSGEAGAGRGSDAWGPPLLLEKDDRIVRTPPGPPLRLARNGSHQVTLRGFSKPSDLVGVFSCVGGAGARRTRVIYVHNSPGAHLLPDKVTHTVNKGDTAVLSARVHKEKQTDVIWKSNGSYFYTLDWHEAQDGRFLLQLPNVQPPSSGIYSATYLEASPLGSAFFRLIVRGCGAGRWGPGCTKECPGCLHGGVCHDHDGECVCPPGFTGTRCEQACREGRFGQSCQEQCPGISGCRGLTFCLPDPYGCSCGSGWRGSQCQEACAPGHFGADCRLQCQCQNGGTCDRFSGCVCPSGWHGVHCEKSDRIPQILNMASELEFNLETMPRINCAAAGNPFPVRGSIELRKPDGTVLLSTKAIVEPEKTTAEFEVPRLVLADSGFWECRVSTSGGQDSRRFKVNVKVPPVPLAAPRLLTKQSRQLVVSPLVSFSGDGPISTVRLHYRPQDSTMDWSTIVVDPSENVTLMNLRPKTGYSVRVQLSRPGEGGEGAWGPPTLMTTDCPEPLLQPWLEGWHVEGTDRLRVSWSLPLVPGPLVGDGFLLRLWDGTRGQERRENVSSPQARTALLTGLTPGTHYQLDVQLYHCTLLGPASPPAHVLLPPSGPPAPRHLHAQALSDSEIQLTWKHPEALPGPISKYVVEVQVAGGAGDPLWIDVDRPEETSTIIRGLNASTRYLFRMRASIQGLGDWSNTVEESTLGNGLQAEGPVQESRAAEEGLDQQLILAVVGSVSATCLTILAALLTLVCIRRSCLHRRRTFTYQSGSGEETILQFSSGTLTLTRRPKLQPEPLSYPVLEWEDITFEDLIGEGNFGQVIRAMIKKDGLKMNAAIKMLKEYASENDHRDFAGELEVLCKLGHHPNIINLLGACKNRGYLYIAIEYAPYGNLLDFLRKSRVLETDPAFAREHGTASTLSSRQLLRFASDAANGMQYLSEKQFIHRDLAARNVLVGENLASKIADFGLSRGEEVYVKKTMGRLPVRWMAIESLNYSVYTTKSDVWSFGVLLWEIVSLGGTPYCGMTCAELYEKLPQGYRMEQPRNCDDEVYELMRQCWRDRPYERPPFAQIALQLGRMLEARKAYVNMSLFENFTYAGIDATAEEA

[8] = target: Serine/threonine-protein kinase N2 (Homo sapiens, UniProt Q16513); test: Selectivity interaction (KinomeScan (DiscoverX)) EUB0001619a PKN2; settings: at 1 µM
Sequence of Serine/threonine-protein kinase N2 (Q16513 whole entry, looked up): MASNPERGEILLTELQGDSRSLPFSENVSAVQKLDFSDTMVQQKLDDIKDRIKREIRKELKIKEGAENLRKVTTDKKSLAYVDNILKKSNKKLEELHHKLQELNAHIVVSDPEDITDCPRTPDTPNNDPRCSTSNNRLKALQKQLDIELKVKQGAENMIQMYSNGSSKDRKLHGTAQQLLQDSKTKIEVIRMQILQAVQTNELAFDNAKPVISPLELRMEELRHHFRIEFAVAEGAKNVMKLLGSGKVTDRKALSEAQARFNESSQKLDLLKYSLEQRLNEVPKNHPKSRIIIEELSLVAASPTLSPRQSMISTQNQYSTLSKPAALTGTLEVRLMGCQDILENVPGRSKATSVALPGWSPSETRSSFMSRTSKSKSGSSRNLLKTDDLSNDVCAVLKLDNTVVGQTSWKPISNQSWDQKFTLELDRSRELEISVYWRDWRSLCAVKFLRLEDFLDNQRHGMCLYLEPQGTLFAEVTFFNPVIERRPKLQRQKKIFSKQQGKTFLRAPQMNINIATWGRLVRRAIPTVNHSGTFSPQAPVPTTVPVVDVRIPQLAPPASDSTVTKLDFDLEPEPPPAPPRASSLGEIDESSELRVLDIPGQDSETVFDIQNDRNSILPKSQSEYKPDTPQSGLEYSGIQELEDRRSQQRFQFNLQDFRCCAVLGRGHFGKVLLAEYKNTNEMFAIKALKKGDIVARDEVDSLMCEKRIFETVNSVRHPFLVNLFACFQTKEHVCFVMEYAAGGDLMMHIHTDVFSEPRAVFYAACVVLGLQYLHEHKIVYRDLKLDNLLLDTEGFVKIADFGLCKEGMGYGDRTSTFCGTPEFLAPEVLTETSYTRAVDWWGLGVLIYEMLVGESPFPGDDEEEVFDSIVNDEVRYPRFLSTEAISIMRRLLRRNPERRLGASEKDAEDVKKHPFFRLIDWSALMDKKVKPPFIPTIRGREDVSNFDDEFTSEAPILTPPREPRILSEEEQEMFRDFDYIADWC

[9] = target: T3, Serine/threonine-protein kinase TAO3 (Homo sapiens) (UniProt Q9H2K8); test: Selectivity interaction (ActivX KiNativ screen (ex vivo kinase selectivity in human PBMCs)) EUB0001619a TAOK3; format: cell-based; settings: PBMC, at 1 µM
T3 sequence (whole entry): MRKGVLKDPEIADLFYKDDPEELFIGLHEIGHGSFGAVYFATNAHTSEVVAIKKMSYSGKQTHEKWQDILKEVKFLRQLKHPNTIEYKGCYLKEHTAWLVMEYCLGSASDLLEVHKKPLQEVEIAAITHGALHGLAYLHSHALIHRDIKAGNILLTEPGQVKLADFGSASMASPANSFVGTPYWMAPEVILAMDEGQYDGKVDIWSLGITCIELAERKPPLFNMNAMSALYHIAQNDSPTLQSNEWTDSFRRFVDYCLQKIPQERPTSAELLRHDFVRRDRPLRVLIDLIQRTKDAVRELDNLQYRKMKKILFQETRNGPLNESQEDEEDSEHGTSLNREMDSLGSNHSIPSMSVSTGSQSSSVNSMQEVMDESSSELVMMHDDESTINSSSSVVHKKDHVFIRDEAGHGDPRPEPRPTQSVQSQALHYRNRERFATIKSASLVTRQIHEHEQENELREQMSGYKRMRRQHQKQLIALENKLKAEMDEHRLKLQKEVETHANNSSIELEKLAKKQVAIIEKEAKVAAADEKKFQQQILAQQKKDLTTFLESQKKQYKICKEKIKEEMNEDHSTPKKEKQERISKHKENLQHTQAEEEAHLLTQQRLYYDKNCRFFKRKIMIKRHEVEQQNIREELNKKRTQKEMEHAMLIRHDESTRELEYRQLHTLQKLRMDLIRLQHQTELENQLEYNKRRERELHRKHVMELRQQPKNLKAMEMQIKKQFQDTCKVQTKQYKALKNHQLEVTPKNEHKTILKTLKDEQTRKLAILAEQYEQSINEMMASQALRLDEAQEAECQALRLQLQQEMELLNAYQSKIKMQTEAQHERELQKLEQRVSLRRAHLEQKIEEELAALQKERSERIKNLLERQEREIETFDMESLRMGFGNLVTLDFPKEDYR

Sequence of Bromodomain-containing protein 9 (Homo sapiens) (Q9H8M2 whole entry): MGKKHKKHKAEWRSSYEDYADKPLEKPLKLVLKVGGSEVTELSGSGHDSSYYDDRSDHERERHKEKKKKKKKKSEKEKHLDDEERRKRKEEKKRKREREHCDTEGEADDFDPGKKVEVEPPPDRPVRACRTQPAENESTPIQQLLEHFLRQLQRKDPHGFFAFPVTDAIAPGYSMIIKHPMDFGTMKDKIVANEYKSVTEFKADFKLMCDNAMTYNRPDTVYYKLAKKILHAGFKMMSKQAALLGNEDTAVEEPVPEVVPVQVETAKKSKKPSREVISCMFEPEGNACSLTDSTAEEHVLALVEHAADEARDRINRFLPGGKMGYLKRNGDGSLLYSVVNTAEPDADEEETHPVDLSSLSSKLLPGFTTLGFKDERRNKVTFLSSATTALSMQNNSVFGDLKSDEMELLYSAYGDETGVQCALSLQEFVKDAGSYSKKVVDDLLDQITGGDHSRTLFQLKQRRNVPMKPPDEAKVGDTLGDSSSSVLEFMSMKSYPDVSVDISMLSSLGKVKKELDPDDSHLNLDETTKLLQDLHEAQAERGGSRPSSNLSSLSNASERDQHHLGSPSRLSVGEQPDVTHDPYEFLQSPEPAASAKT

Work on `CN(C)CCCOc1ccc(-c2cc(NCCCn3cccn3)nc(S(C)(=O)=O)n2)cc1` yielded a dTM [1] of 4.8 K.
For `O=C(NOC[C@H](O)CO)c1ccc(F)c(F)c1Nc1ccc(I)cc1F`, the % of control [2] was 86%.
For `Cn1cc(-n2cnc3c(NCc4nc5cc(Cl)c(Cl)cc5[nH]4)nc(N4CCOCC4)nc32)cn1`, the % of control [3] was 19.3% and the % of control [4] was 4.08%.
Molecule `CNC(=O)Nc1ccc(-c2nc(N3CC4CCC(C3)O4)c3cnn(C4CCC5(CC4)OCCO5)c3n2)cc1` has a % of control [5] of 100%.
`Cc1cc(F)c(C(=O)Nc2cccc(-c3nncn3C(C)C)n2)cc1-n1cnc(C2CC2)c1` showed a % of control [6] of 91% and a % of control [7] of 87%.
In the case of `N#Cc1cccc(-c2c[nH]c3ncnc(N4CCOCC4)c23)c1`, the % of control [8] is reported as 35% and the % of inhibition [9] is reported as 6%.
